# Activity calls are given as the source filed them. The calls are words filed in the database; no cut-off is given here.
# Columns and labels:
# Hepatocyte [1] = assay: Anti-MASH activity in fatty acid induced human iPSC derived Hepatocyte assessed as reduction in lipid level in hepatocyte at 10 uM measured after 48 hrs; type: functional, cell-based
# Hepatocyte [2] = assay: Anti-MASH activity in fatty acid induced human iPSC derived Hepatocyte assessed as reduction in lipid droplet size in hepatocyte at 10 uM measured after 48 hrs; type: functional, cell-based
# [3] = Mutagenicity in Salmonella typhimurium TA98 at 5 to 100 mM incubated for 96 hrs in absence of rat liver s9 microsomes by Ames test; type: toxicity; conditions: salmonella enterica subsp. enterica serovar typhimurium, 100000 µM, dose 5-100 mM
# [4] = Mutagenicity in Salmonella typhimurium TA98 at 5 to 100 mM incubated for 96 hrs in presence of rat liver s9 microsomes by Ames test; type: toxicity, Microsome; conditions: salmonella enterica subsp. enterica serovar typhimurium, 100000 µM, dose 5-100 mM
# [5] = Mutagenicity in Salmonella typhimurium TA100 at 5 to 100 mM incubated for 96 hrs in absence of rat liver s9 microsomes by Ames test; type: toxicity; conditions: salmonella enterica subsp. enterica serovar typhimurium, 100000 µM, dose 5-100 mM
# [6] = Mutagenicity in Salmonella typhimurium TA100 at 5 to 100 mM incubated for 96 hrs in presence of rat liver s9 microsomes by Ames test; type: toxicity, Microsome; conditions: salmonella enterica subsp. enterica serovar typhimurium, 100000 µM, dose 5-100 mM
# [7] = Mutagenicity in Salmonella typhimurium TA1535 at 5 to 100 mM incubated for 96 hrs in absence of rat liver s9 microsomes by Ames test; type: toxicity; conditions: salmonella enterica subsp. enterica serovar typhimurium, 100000 µM, dose 5-100 mM
# [8] = Mutagenicity in Salmonella typhimurium TA1535 at 5 to 100 mM incubated for 96 hrs in presence of rat liver s9 microsomes by Ames test; type: toxicity, Microsome; conditions: salmonella enterica subsp. enterica serovar typhimurium, 100000 µM, dose 5-100 mM
# [9] = Mutagenicity in Salmonella typhimurium TA1537 at 5 to 100 mM incubated for 96 hrs in absence of rat liver s9 microsomes by Ames test; type: toxicity; conditions: salmonella enterica subsp. enterica serovar typhimurium, 100000 µM, dose 5-100 mM
# [10] = Mutagenicity in Salmonella typhimurium TA1537 at 5 to 100 mM incubated for 96 hrs in presence of rat liver s9 microsomes by Ames test; type: toxicity, Microsome; conditions: salmonella enterica subsp. enterica serovar typhimurium, 100000 µM, dose 5-100 mM
# in vitro = conditions: human, Caco-2
# Description: Apparent permeability of the compound in human Caco-2 cells across apical to basolateral side
# [11] = Metabolic stability in human liver microsomes assessed as clearance; type: ADME, Microsome
Papp A→B (in vitro) [×10⁻⁶ cm/s],CLH [11] [µL/min/mg],Compound,Activity (Hepatocyte [1]),Activity (Hepatocyte [2]),Activity [3],Activity [4],Activity [5],Activity [6],Activity [7],Activity [8],Activity [9],Activity [10]
,,CC(C)c1cc(Oc2c(Cl)cc(-n3nc(C#N)c(=O)[nH]c3=O)cc2Cl)n[nH]c1=O,Active,Active,,,,,,,,
6.6,,Cn1nnc(CN(Cc2ccc(N)c(Cl)c2)C(=O)NCC(=O)N2CCC[C@@H]2c2ccccc2Br)n1,,,Non-toxic,Non-toxic,Non-toxic,Non-toxic,Non-toxic,Non-toxic,Non-toxic,Non-toxic
5,,CSc1ccccc1[C@H]1CCCN1C(=O)CNC(=O)N(Cc1ccc(N)c(Cl)c1)Cc1nnn(C)n1,Active,Active,Non-toxic,Non-toxic,Non-toxic,Non-toxic,Non-toxic,Non-toxic,Non-toxic,Non-toxic
0.8,60,CSc1ccccc1[C@H]1CCCN1C(=O)CNC(=O)N(Cc1cnc(N)nc1)Cc1ncc(C)s1,,,Non-toxic,Non-toxic,Non-toxic,Non-toxic,Non-toxic,Non-toxic,Non-toxic,Non-toxic
